Measurements published in the NIST ThermoML archive (doi:10.1016/j.jct.2019.06.027).
± gives the expanded uncertainty stated by the source.

Experiments:
[1] = for surface tension liquid-gas: Maximal bubble pressure; for mass density: 101.33 kPa, Liquid, Vibrating tube method
[2] = refractive index (Na D-line) (dimensionless); settings: 101.33 kPa, Liquid, Standard Abbe refractometry

CCOCCn1cc[n+](C)c1.[Cl-] [1-(2-ethoxyethyl)-3-methylimidazolium chloride]
surface tension liquid-gas ([1]; 288.15 K): 47.8 ± 0.5 mN/m | mass density ([1]; 288.15 K): 1143.13 ± 2.3 kg/m3 | surface tension liquid-gas ([1]; 293.15 K): 47.3 ± 0.5 mN/m | mass density ([1]; 293.15 K): 1139.98 ± 2.3 kg/m3 | surface tension liquid-gas ([1]; 298.15 K): 46.9 ± 0.5 mN/m | mass density ([1]; 298.15 K): 1136.83 ± 2.3 kg/m3 | surface tension liquid-gas ([1]; 303.15 K): 46.5 ± 0.5 mN/m | mass density ([1]; 303.15 K): 1133.69 ± 2.3 kg/m3 | surface tension liquid-gas ([1]; 308.15 K): 46 ± 0.5 mN/m | mass density ([1]; 308.15 K): 1130.57 ± 2.3 kg/m3 | surface tension liquid-gas ([1]; 313.15 K): 45.6 ± 0.5 mN/m | mass density ([1]; 313.15 K): 1127.45 ± 2.3 kg/m3 | surface tension liquid-gas ([1]; 318.15 K): 45.2 ± 0.5 mN/m | mass density ([1]; 318.15 K): 1124.37 ± 2.3 kg/m3 | surface tension liquid-gas ([1]; 323.15 K): 44.8 ± 0.5 mN/m | mass density ([1]; 323.15 K): 1121.28 ± 2.3 kg/m3 | surface tension liquid-gas ([1]; 328.15 K): 44.3 ± 0.5 mN/m | mass density ([1]; 328.15 K): 1118.21 ± 2.3 kg/m3 | refractive index ([2]; 288.15 K): 1.5269 ± 0.0031 | refractive index ([2]; 293.15 K): 1.5255 ± 0.0031 | refractive index ([2]; 298.15 K): 1.524 ± 0.0031 | refractive index ([2]; 303.15 K): 1.5225 ± 0.0031 | refractive index ([2]; 308.15 K): 1.5206 ± 0.0031 | refractive index ([2]; 313.15 K): 1.5184 ± 0.0031 | refractive index ([2]; 318.15 K): 1.5159 ± 0.0031 | refractive index ([2]; 323.15 K): 1.5142 ± 0.0031 | refractive index ([2]; 328.15 K): 1.5119 ± 0.0031

CCOCCn1cc[n+](C)c1.[Br-] [1-(2-ethoxyethyl)-3-methylimidazolium bromide]
surface tension liquid-gas ([1]; 288.15 K): 50.9 ± 0.5 mN/m | mass density ([1]; 288.15 K): 1360.32 ± 2.4 kg/m3 | surface tension liquid-gas ([1]; 293.15 K): 50.5 ± 0.5 mN/m | mass density ([1]; 293.15 K): 1356.56 ± 2.4 kg/m3 | surface tension liquid-gas ([1]; 298.15 K): 50.2 ± 0.5 mN/m | mass density ([1]; 298.15 K): 1352.79 ± 2.4 kg/m3 | surface tension liquid-gas ([1]; 303.15 K): 49.8 ± 0.5 mN/m | mass density ([1]; 303.15 K): 1349.05 ± 2.4 kg/m3 | surface tension liquid-gas ([1]; 308.15 K): 49.5 ± 0.5 mN/m | mass density ([1]; 308.15 K): 1345.33 ± 2.4 kg/m3 | surface tension liquid-gas ([1]; 313.15 K): 49.2 ± 0.5 mN/m | mass density ([1]; 313.15 K): 1341.63 ± 2.4 kg/m3 | surface tension liquid-gas ([1]; 318.15 K): 48.9 ± 0.5 mN/m | mass density ([1]; 318.15 K): 1337.99 ± 2.4 kg/m3 | surface tension liquid-gas ([1]; 323.15 K): 48.6 ± 0.5 mN/m | mass density ([1]; 323.15 K): 1334.35 ± 2.4 kg/m3 | surface tension liquid-gas ([1]; 328.15 K): 48.3 ± 0.5 mN/m | mass density ([1]; 328.15 K): 1330.24 ± 2.4 kg/m3 | refractive index ([2]; 288.15 K): 1.5473 ± 0.0031 | refractive index ([2]; 293.15 K): 1.5458 ± 0.0031 | refractive index ([2]; 298.15 K): 1.5441 ± 0.0031 | refractive index ([2]; 303.15 K): 1.5426 ± 0.0031 | refractive index ([2]; 308.15 K): 1.5409 ± 0.0031 | refractive index ([2]; 313.15 K): 1.5391 ± 0.0031 | refractive index ([2]; 318.15 K): 1.5376 ± 0.0031 | refractive index ([2]; 323.15 K): 1.5357 ± 0.0031 | refractive index ([2]; 328.15 K): 1.5341 ± 0.0031

COCCn1cc[n+](C)c1.[Cl-] [1-(2-methoxyethyl)-3-methylimidazolium chloride]
surface tension liquid-gas ([1]; 288.15 K): 49.6 ± 0.5 mN/m | mass density ([1]; 288.15 K): 1168.6 ± 2.3 kg/m3 | surface tension liquid-gas ([1]; 293.15 K): 49.2 ± 0.5 mN/m | mass density ([1]; 293.15 K): 1165.46 ± 2.3 kg/m3 | surface tension liquid-gas ([1]; 298.15 K): 48.7 ± 0.5 mN/m | mass density ([1]; 298.15 K): 1162.31 ± 2.3 kg/m3 | surface tension liquid-gas ([1]; 303.15 K): 48.4 ± 0.5 mN/m | mass density ([1]; 303.15 K): 1159.17 ± 2.3 kg/m3 | surface tension liquid-gas ([1]; 308.15 K): 48 ± 0.5 mN/m | mass density ([1]; 308.15 K): 1156.04 ± 2.3 kg/m3 | surface tension liquid-gas ([1]; 313.15 K): 47.6 ± 0.5 mN/m | mass density ([1]; 313.15 K): 1152.91 ± 2.3 kg/m3 | surface tension liquid-gas ([1]; 318.15 K): 47.1 ± 0.5 mN/m | mass density ([1]; 318.15 K): 1149.78 ± 2.3 kg/m3 | surface tension liquid-gas ([1]; 323.15 K): 46.7 ± 0.5 mN/m | mass density ([1]; 323.15 K): 1146.63 ± 2.3 kg/m3 | surface tension liquid-gas ([1]; 328.15 K): 46.2 ± 0.5 mN/m | mass density ([1]; 328.15 K): 1143.27 ± 2.3 kg/m3 | refractive index ([2]; 288.15 K): 1.5201 ± 0.0031 | refractive index ([2]; 293.15 K): 1.5185 ± 0.0031 | refractive index ([2]; 298.15 K): 1.516 ± 0.0031 | refractive index ([2]; 303.15 K): 1.5142 ± 0.0031 | refractive index ([2]; 308.15 K): 1.5121 ± 0.0031 | refractive index ([2]; 313.15 K): 1.5103 ± 0.0031 | refractive index ([2]; 318.15 K): 1.5083 ± 0.0031 | refractive index ([2]; 323.15 K): 1.5069 ± 0.0031 | refractive index ([2]; 328.15 K): 1.5046 ± 0.0031
